The record followed here is US20250195513A1, “DEGRADATION OF IRAK4 BY CONJUGATION OF IRAK4 INHIBITORS WITH E3 LIGASE LIGAND AND METHODS OF USE” (BeiGene, Ltd., priority 2022, published 2025).

The structures appear in SMILES notation.

Common to all, as to type: cell-based
Test [1] has as its target T1, IRAK4 (Homo sapiens, UniProt Q9NWZ3).
T1 construct: endogenous in cells; host or cells: Karpas299
T1 sequence (Q9NWZ3 1-460): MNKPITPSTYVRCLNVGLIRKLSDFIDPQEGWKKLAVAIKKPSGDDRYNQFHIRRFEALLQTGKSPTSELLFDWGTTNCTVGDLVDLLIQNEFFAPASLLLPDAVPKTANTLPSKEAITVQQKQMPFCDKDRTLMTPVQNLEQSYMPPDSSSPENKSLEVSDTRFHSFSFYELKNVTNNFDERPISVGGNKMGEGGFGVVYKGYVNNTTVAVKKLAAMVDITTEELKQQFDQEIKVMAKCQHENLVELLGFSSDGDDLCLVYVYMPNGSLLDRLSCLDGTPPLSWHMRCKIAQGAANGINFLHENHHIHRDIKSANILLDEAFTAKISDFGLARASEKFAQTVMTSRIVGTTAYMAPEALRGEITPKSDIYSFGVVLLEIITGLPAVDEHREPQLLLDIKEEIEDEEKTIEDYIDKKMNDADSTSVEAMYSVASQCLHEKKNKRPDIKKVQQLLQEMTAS
In words: IRAK4 Degradation Assay (Karpas299, HTRF/TR-FRET). To be noted: Karpas-299 cells; for Dmax: maximum percentage of degradation. The essentials: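 Karpas299 cells at 0.2 million per well were exposed to serially diluted compounds for 24 h or 5 h, then lysed. IRAK4 remaining in lysates was quantified by HTRF (665/620 nm) after overnight antibody incubation at room temperature. Percent degradation was fitted to a four-parameter curve to give IC50 (DC50).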
On the technique in general: Time-resolved FRET reads energy transfer from a long-lived donor to a nearby acceptor.

Test [2] has as its system IL-6 production in human PBMC. In words: IL-6 Production Assay in Human PBMC (LPS stimulated). Conditions: Homo sapiens, 5 h. As for the experimental part: Frozen human PBMC (AllCells) were thawed in RPMI 1640 medium (Thermo Scientific) supplemented with 10% heat-inactivated FBS (Thermo Scientific) and recovered at 37° C. overnight. The next day, PBMC were seeded into 96-well plates at the density of 0.2 million cells per well and treated with compounds for 24 h. Then lipopolysaccharide was added at the final concentration of 10 ng/mL for 5 h. Culture supernatant was collected for subsequent measurement of IL-6 concentration by a TR-FRET-based method (Degorce, François, et al. Current chemical genomics. 2009, 3: 22) as described by the manufacturer manual (Cisbio). FRET signals were measured with PHERAstar FSX reader (BMG Labtech).

For test [3], the target named is T1, IRAK4. In words: IRAK4 Degradation Assay with Human Serum (Karpas299, HTRF/TR-FRET). Conditions: Karpas-299 in human serum, 24 hrs treatment; for DC50: read-out: IRAK4 degradtion with human serum assay DC50; for Dmax: read-out: IRAK4 degradtion with human serum assay Dmax (%). The essentials:
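Karpas299 cells in human AB serum (0.2 million/well) treated with serial compound dilutions for 24 h. After lysis, IRAK4 quantified by HTRF (overnight antibody incubation at room temperature, 665/620 nm read). Degradation percentage fitted to four-parameter curve to give DC50.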

The subject of test [4] is TNF-α production in THP-1 cells. Put plainly: TNF-α Production Assay in THP-1 Cells (LPS stimulated). To be noted: Homo sapiens, THP-1, 24 h; for Emax: maximum inhibition, read-out: TNF-α (THP-1) 24 h IMax. How it is done: THP-1 cells maintained in RPMI 1640 medium (Thermo Scientific) supplemented with 10% FBS (Thermo Scientific), 100 units/mL penicillin and 0.1 mg/mL streptomycin (Thermo Scientific) were seeded into 96-well plates at the density of 0.2 million cells per well and then treated with compounds for 24 h. Lipopolysaccharide was subsequently added at the final concentration of 1 μg/mL for 24 h. Culture supernatant was collected for measurement of TNF-α concentration by a TR-FRET-based method (Degorce, François, et al. Current chemical genomics. 2009, 3: 22) as described by the manufacturer manual (Cisbio). FRET signals were measured using a PHERAstar FSX reader (BMG Labtech).

[5] abbreviates: 24 h treatment, read-out: IRAK4 in Karpas-299 (24 h) Dmax (%).
The mark [6] stands for this setting: 24 h treatment, read-out: IRAK4 in Karpas-299 (24 h) DC50.

In the case of `COc1cc2nn([C@H]3CC[C@H](N4CCN(CC5CN(c6cc(F)c([C@H]7CCC(=O)NC7=O)c(F)c6)C5)CC4)CC3)cc2cc1C(=O)Nc1cnc2cccnn12` [Example 345, 2-((1r,4r)-4-(4-((1-(4-((R)-2,6-dioxopiperidin-3-yl)-3,5-difluorophenyl)azetidin-3-yl)methyl)piperazin-1-yl)cyclohexyl)-N-(imidazo[1,2-b]pyridazin-3-yl)-6-methoxy-2H-indazole-5-carboxamide], the Dmax on IRAK4 [1] (setting [5]) was 98%; on IRAK4 [3] it was 96%. Also, the DC50 at IRAK4 [1] (setting [6]) is 0.2 nM; at IRAK4 [3], 0.7 nM. The same compound had an IC50 in test [2] of 3.5 nM. In test [2] (maximum inhibition, read-out: IL-6 (PBMC) 5 h IMax), the Emax was 60%.

Regarding `C[C@@H]1CN(C2CCN(c3cc(F)c([C@H]4CCC(=O)NC4=O)c(F)c3)CC2)CCN1[C@H]1CC[C@H](n2cc3cc(NC(=O)c4ccc5cc(C#N)cnn45)c(C(C)(C)O)cc3n2)CC1` [Example 301, 3-cyano-N-(2-((1R,4r)-4-((R)-4-(1-(4-((R)-2,6-dioxopiperidin-3-yl)-3,5-difluorophenyl)piperidin-4-yl)-2-methylpiperazin-1-yl)cyclohexyl)-6-(2-hydroxypropan-2-yl)-2H-indazol-5-yl)pyrrolo[1,2-b]pyridazine-7-carboxamide], the Dmax at IRAK4 [1] (setting [5]) was found to be 100%; at IRAK4 [3] it was 102%. For the same compound, the DC50 on IRAK4 [1] (setting [6]) amounted to 0.7 nM; at IRAK4 [3], 3.2 nM. For the same compound, it took 42 nM to reach half-maximal inhibition in test [4] (IC50). Moreover, the Emax in test [4] is 96%.

Consider `C[C@H]1CN([C@H]2CC[C@H](n3cc4cc(NC(=O)c5ccc6cc(C#N)cnn56)c(C(C)(C)O)cc4n3)CC2)CCN1C(=O)C1CN(c2cc(F)c([C@H]3CCC(=O)NC3=O)c(F)c2)C1` [Example 311, 3-cyano-N-(2-((1S,4r)-4-((S)-4-(1-(4-((R)-2,6-dioxopiperidin-3-yl)-3,5-difluorophenyl)azetidine-3-carbonyl)-3-methylpiperazin-1-yl)cyclohexyl)-6-(2-hydroxypropan-2-yl)-2H-indazol-5-yl)pyrrolo[1,2-b]pyridazine-7-carboxamide], for which the Dmax on IRAK4 [1] (setting [5]) turned out to be 98%; on IRAK4 [3] it was 99%. Also, the DC50 came to 0.8 nM on IRAK4 [1] (setting [6]) and 15 nM on IRAK4 [3]. In test [4], this compound came in with a half-maximal inhibitory concentration (IC50) of 29 nM. Also, the Emax in test [4] stood at 91%.

Turning to `CC(C)(O)c1cc2nn([C@H]3C[C@H](N4CCN(C(=O)C5CN(c6cc(F)c([C@H]7CCC(=O)NC7=O)c(F)c6)C5)CC4)C3)cc2cc1NC(=O)c1ccc2cc(C#N)cnn12` [Example 201, 3-cyano-N-(2-((1R,3r)-3-(4-(1-(4-((R)-2,6-dioxopiperidin-3-yl)-3,5-difluorophenyl)azetidine-3-carbonyl)piperazin-1-yl)cyclobutyl)-6-(2-hydroxypropan-2-yl)-2H-indazol-5-yl)pyrrolo[1,2-b]pyridazine-7-carboxamide], at IRAK4 [1] (setting [5]), the Dmax was determined as 96%. Also, the DC50 at IRAK4 [1] (setting [6]) was 0.8 nM. In test [4], the IC50 came out at 6.7 nM and the Emax was 80%. On IRAK4 [3], the DC50 was 11 nM and the Dmax is 99%.

For the compound `CC(C)(O)c1cc2nn([C@H]3C[C@H](N4CCN(C5CCN(c6cc(F)c([C@H]7CCC(=O)NC7=O)c(F)c6)CC5)CC4)C3)cc2cc1NC(=O)c1ccc2cc(C#N)cnn12` [Example 330, 3-cyano-N-(2-((1R,3r)-3-(4-(1-(4-((R)-2,6-dioxopiperidin-3-yl)-3,5-difluorophenyl)piperidin-4-yl)piperazin-1-yl)cyclobutyl)-6-(2-hydroxypropan-2-yl)-2H-indazol-5-yl)pyrrolo[1,2-b]pyridazine-7-carboxamide], the Dmax on IRAK4 [1] (setting [5]) stood at 96%. In addition, on IRAK4 [1] (setting [6]), the DC50 was found to be 0.6 nM. Further, in test [4], the IC50 stood at 19 nM and the Emax turned out to be 89%. In addition, on IRAK4 [3], the DC50 amounted to 10 nM and the Dmax was found to be 98%.

With `COC[C@H]1CN([C@H]2CC[C@H](n3cc4cc(NC(=O)c5ccc6cc(C#N)cnn56)c(C(C)(C)O)cc4n3)CC2)CCN1C(=O)C1CN(c2cc(F)c([C@H]3CCC(=O)NC3=O)c(F)c2)C1` [Example 185, 3-cyano-N-(2-((1R,4r)-4-((R)-4-(1-(4-((R)-2,6-dioxopiperidin-3-yl)-3,5-difluorophenyl)azetidine-3-carbonyl)-3-(methoxymethyl)piperazin-1-yl)cyclohexyl)-6-(2-hydroxypropan-2-yl)-2H-indazol-5-yl)pyrrolo[1,2-b]pyridazine-7-carboxamide], the Dmax at IRAK4 [1] (setting [5]) worked out at 96%. Also, the DC50 at IRAK4 [1] (setting [6]) came to 0.7 nM. In test [4], 12 nM corresponded to half-maximal inhibition (IC50) and the Emax came to 91%. At IRAK4 [3], the DC50 is 14 nM and the Dmax came to 100%.

`C[C@H]1CN(C(=O)C2CN(c3cc(F)c([C@H]4CCC(=O)NC4=O)c(F)c3)C2)CCN1[C@H]1CC[C@H](n2cc3cc(NC(=O)c4ccc5cc(C#N)cnn45)c(C(C)(C)O)cc3n2)CC1` [Example 304, 3-cyano-N-(2-((1S,4r)-4-((S)-4-(1-(4-((R)-2,6-dioxopiperidin-3-yl)-3,5-difluorophenyl)azetidine-3-carbonyl)-2-methylpiperazin-1-yl)cyclohexyl)-6-(2-hydroxypropan-2-yl)-2H-indazol-5-yl)pyrrolo[1,2-b]pyridazine-7-carboxamide]: the Dmax at IRAK4 [1] (setting [5]) was 96%. For the same compound, on IRAK4 [1] (setting [6]), the DC50 came out at 0.5 nM. For the same compound, in test [4], 31 nM corresponded to half-maximal inhibition (IC50) and the Emax worked out at 88%. Moreover, at IRAK4 [3], the DC50 worked out at 65 nM and the Dmax turned out to be 97%.

Take `CC(C)(O)c1cc2nn([C@H]3CC[C@H](N4CCN(C5CCN(c6ccc(C7CCC(=O)NC7=O)cc6)CC5)CC4)CC3)cc2cc1NC(=O)c1ccc2cc(C#N)cnn12` (some centres unmarked) [Example 195, 3-cyano-N-(2-((1r,4r)-4-(4-(1-(4-(2,6-dioxopiperidin-3-yl)phenyl)piperidin-4-yl)piperazin-1-yl)cyclohexyl)-6-(2-hydroxypropan-2-yl)-2H-indazol-5-yl)pyrrolo[1,2-b]pyridazine-7-carboxamide]: the Dmax worked out at 97% on IRAK4 [1] (5 h treatment, read-out: IRAK4 in Karpas-299 (5 h) Dmax (%)); 98% at IRAK4 [1] (setting [5]); 98% on IRAK4 [3]. Also, the DC50 on IRAK4 [1] (5 h treatment, read-out: IRAK4 in Karpas-299 (5 h) DC50) came out at 13 nM; on IRAK4 [1] (setting [6]), 2.8 nM; on IRAK4 [3], 10 nM. The same compound gave an IC50 in test [4] of 118 nM. In addition, in test [4], the Emax stood at 72%.

On to `C[C@@H]1CN(C(=O)C2CN(c3cc(F)c([C@H]4CCC(=O)NC4=O)c(F)c3)C2)CCN1[C@H]1CC[C@H](n2cc3cc(NC(=O)c4ccc5cc(C#N)cnn45)c(C(C)(C)O)cc3n2)CC1` [Example 298, 3-cyano-N-(2-((1R,4r)-4-((R)-4-(1-(4-((R)-2,6-dioxopiperidin-3-yl)-3,5-difluorophenyl)azetidine-3-carbonyl)-2-methylpiperazin-1-yl)cyclohexyl)-6-(2-hydroxypropan-2-yl)-2H-indazol-5-yl)pyrrolo[1,2-b]pyridazine-7-carboxamide], for which the Dmax at IRAK4 [1] (setting [5]) turned out to be 99%. The DC50 at IRAK4 [1] (setting [6]) amounted to 0.3 nM. In addition, in test [4], the midpoint of inhibition, the IC50, lay at 13 nM and the Emax is 93%. Also, at IRAK4 [3], the DC50 amounted to 9.8 nM and the Dmax was 103%.

In general, Dmax refers to the greatest extent of degradation seen. The DC50 is the concentration giving 50% degradation. By IC50 is commonly meant the concentration needed to halve the response being measured. Higher therefore signals a need for much substance.
